From patent US5264445A, “(-)-N"-cyano-N-3-pyridyl-N'-1,2,2-trimethylpropylguanidine” (Eli Lilly and Company, priority 1992, dated 1993)

Assays:
[1] = system: phenylephrine-contracted cephalic veins; assay: Canine cephalic vein assay: relaxing phenylephrine-contracted cephalic veins; type: cell-based; details: relaxing phenylephrine-contracted canine cephalic veins in vitro, ±SEM
Protocol: (§1) All six compounds were tested in the Purkinje fiber and canine cephalic vein assays taught by Steinberg et al., Journal of Cardiovascular Pharmacology, 12 (Suppl. 2), S30-S40 (1988). The effective concentration for reducing the Purkinje fiber action potential duration and for relaxing phenylephrine-contracted cephalic veins, respectively, otherwise known as the EC50, was determined for each compound and is reported in Table I.

[2] = system: Purkinje fiber; assay: Purkinje fiber assay: reducing the Purkinje fiber action potential duration; type: cell-based; details: reducing canine Purkinje fiber action potential duration in vitro, ±SEM
Protocol: as §1

[3] = system: spontaneously hypertensive rats; details: cited from earlier work
[4] = system: potassium channels; assay: Potency as potassium channel opener (comparison of isomers); details: compared with its (+) enantiomer, pinacidil, or any of the pinacidil enantiomers
Text: Pinacidil is currently undergoing clinical trials to determine its antihypertensive potential. By virtue of the branched N-alkyl side chain, pinacidil is a mixture of two enantiomers. Recently, both enantiomers have been prepared and studied -- see, Weston et al., Drugs, 36 (Suppl. 7), 10 (1988).

[5] = system: potassium channels; details: reported by Weston et al., Drugs, 36 (Suppl. 7), 10 (1988); cited from earlier work
[6] = Canis lupus familiaris, purkinje

Row | SMILES | EC50 ([1]; Canis lupus familiaris) [nM] | EC50 [2, 6] [nM] | EC50 [1] [nM] | EC50 [2] [nM] | minimal effective dose (MED) to decrease blood pressure [3] [mg/kg] | relative potency as a potassium channel opener [4] | relative potency of pinacidil enantiomers [5]
1 | CC(N/C(=N\C#N)Nc1ccncc1)C(C)(C)C (racemic) [(±)-Pinacidil, N"-cyano-N-4-pyridyl-N'-1,2,2-trimethylpropylguanidine] | 760 ± 120 | 3000 ± 1000 | – | – | 0.5 | – | –
2 | CC(NC(=NC#N)Nc1cccnc1)C(C)(C)C (racemic) [N"-cyano-N-3-pyridyl-N'-1,2,2-trimethylpropylguanidine] | 560 ± 140 | 500 ± 30 | – | – | 1 | – | –
3 | CC(NC(=NC#N)Nc1ccncc1)C(C)(C)C (single isomer, unassigned; (+)) [(+)-Pinacidil] | – | – | 9550 ± 70 | 55000 ± 9600 | – | – | –
4 | CC(NC(=NC#N)Nc1ccncc1)C(C)(C)C (single isomer, unassigned; (-)) [(-)-Pinacidil] | – | – | 440 ± 100 | 3200 ± 1200 | – | – | more potent than the (+) isomer

Further lines, with some results ahead:

Row | EC50 ([1]; Canis lupus familiaris) [nM] | EC50 [2, 6] [nM] | EC50 [1] [nM] | EC50 [2] [nM] | SMILES | minimal effective dose (MED) to decrease blood pressure [3] [mg/kg] | relative potency as a potassium channel opener [4] | relative potency of pinacidil enantiomers [5]
5 | – | – | 6410 ± 1800 | 23000 ± 4700 | CC(NC(=NC#N)Nc1cccnc1)C(C)(C)C (single isomer, unassigned; (+)) [(+)-N"-cyano-N-3-pyridyl-N'-1,2,2-trimethylpropylguanidine] | – | – | –
6 | – | – | 90 ± 30 | 430 ± 260 | CC(NC(=NC#N)Nc1cccnc1)C(C)(C)C (single isomer, unassigned; (-)) [(-)-N"-cyano-N-3-pyridyl-N'-1,2,2-trimethylpropylguanidine] | – | considerably more potent | –
